Source: patent US20130096145A1, “Use of 1H-quinazoline-2,4-diones” (Novartis AG, priority 2010, published 2013)

Tests used:
OF1 mice = test: Murine maximal electroshock test (MES Test); type: in vivo; details: 1 h; for MES-Test (1 h, po) protection @50: percentage of protected mice (5 per condition) @50, p.o.
Procedure: (§1) Compounds of the invention were tested in OF1 mice using the maximal electroshock test (MES Test) described in detail by Schmutz et al., Naunyn-Schmiedeberg's Arch Pharmacol 1990, 342, 61-66. Briefly, generalized tonic-clonic convulsions of the hind extremities were induced by passing electrical current through temporal electrodes (50 Hz, 18 mA, 0.2s). […] 30 mg/kg carbamazepine was used as a positive control; mice were classified as protected by a compound if the duration of the seizure lasted only 3 second or less. Five mice were used for each treatment condition and the percentage of protected mice was used as readout (i.e. a compound could give 0%, 20%, 40%, 60%, 80% or 100% protection). Compounds of the invention were given at a dose of 50 mg/kg, p.o., 1 hour prior to induction of convulsions (i.e. “pre-treatment time -1 h”). ED50 values (ED: effective dose) were calculated using GraphPad Prism, v4.02. 15 s after shock administration, mouse blood was collected for determination of compounds' blood exposure.

mouse = test: Oral bioavailability: audiogenic mouse test and/or MES test; type: in vivo; details: oral administration
Procedure: The oral bioavailability was tested using the audiogenic mouse test (Audiogenic seizures, R. L. Collins; Chapter 14, pages: 347-372. In: Experimental Models of Epilepsy; By: Pupura, Penry, Tower, Woodbury, Walter, Raven Press, New York, 1972. Standard Book Number: 0-911216-26-X) and/or the MES test.
as §1

SMILES | MES-Test (1 h, po) protection @50 (OF1 mice) | In vivo orally active (mouse) | MES-Test (1 h, po) protection @25 (OF1 mice; percentage of protected mice (5 per condition) @25, p.o.)
CCc1cc2[nH]c(=O)n(NS(C)(=O)=O)c(=O)c2cc1-c1ccnn1C(C)C [Compound C-6, N-[7-Ethyl-6-(2-isopropyl-2H-pyrazol-3-yl)-2,4-dioxo-1,4-dihydro-2H-quinazolin-3-yl]-methanesulfonamide] | 20% @50 | yes | 
CS(=O)(=O)Nn1c(=O)[nH]c2cc(C(F)(F)F)c(C3CCOC3)cc2c1=O (stereo not drawn) [Compound B-3, N-[2,4-Dioxo-6-(tetrahydro-furan-3-yl)-7-trifluoromethyl-1,4-dihydro-2H-quinazolin-3-yl]-methanesulfonamide] |  | Yes | 20% @25^3
Cn1nncc1-c1cc2c(=O)n(NS(C)(=O)=O)c(=O)[nH]c2cc1C(F)(F)F [Comparative, N-(6-(1-methyl-1H-1,2,3-triazol-5-yl)-2,4-dioxo-7-trifluoromethyl-1,4-dihydro-2H-quinazolin-3-yl]-methanesulfonamide, reference compound] | 0% @50 | No | 
